Measurements from patent publication US8586505B2 (SDS Biotech K. K., priority 2009, dated 2013).

Columns and labels:
Type in all cases: in vivo
[1] = tested on: Sphaerotheca fuliginea; assay: Test of examining control effect on Sphaerotheca fuliginea (potted cucumber plants); details: Podosphaera fuliginea, 336 h; 10% wettable powder adjusted to 125 ppm, 15 ml/pot sprayed on potted cucumber plants one day before spray inoculation; assessed after 14 days in greenhouse; read-out: Determination of control effect (preventive value) on Sphaerotheca fuliginea
Procedure, shortened: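 Cucumber plants (Sagamihanjiro, 2nd leaf stage) sprayed with 125 ppm compound (from 10% wettable powder), inoculated one day later with S. fuliginea conidia (1.0×10^5 cells/ml); lesion area scored after 14 days in greenhouse. Preventive value vs untreated; ≥60% high, <60% low control.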

[2] = tested on: Phytophthora infestans; assay: whole plant or invertebrate; details: in Solanum lycopersicum, 96 h, read-out: Determination of control effect (preventive value)
[3] = tested on: Pseudoperonospora cubensis; assay: Test of examining control effect on Pseudoperonospora cubensis (potted cucumber plants); details: 96 h, 10% wettable powder adjusted to 125 ppm, 15 ml/pot sprayed on potted cucumber plants one day before spray inoculation, assessed after 1 day wet chamber and 3 days greenhouse, read-out: Determination of control effect (preventive value) on Pseudoperonospora cubensis
Procedure, shortened: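 Cucumber plants (Sagamihanjiro, 2.5-leaf stage) sprayed with 125 ppm compound solution from 10% wettable powder, 15 ml/pot. One day later, spray-inoculated with P. cubensis conidia (1.0×10^4 cells/ml), kept 1 day at 21° C wet, then 3 days in greenhouse. Preventive value derived from lesion area relative to untreated plants.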

SMILES | pest or weed control at 125 µg/mL [1] [%] | pest or weed control at 125 ppm [2] [%] | pest or weed control at 125 µg/mL [3] [%]
CC(CC#Cc1ccc(F)cc1CO)Nc1ncnc2sccc12 (stereo not drawn) [compound 244] | 60 to 100 | 60 to 100 | 60 to 100
FC(F)(F)c1ccc(C#CCCNc2ncnc3sccc23)cc1 [compound 27] | 60 to 100 | 0 to 60 | 60 to 100
COCc1ccccc1C#CCCNc1ncnc2cc(Cl)ccc12 [compound 312] | 60 to 100 | 0 to 60 | 60 to 100
COCc1ccccc1C#CCCNc1ncnc2ccc(SC)cc12 [compound 332] | 0 to 60 | 0 to 60 | 60 to 100
C/C(C#N)=C/C#CCCNc1ncnc2ccccc12 [compound 93] | 60 to 100 | 60 to 100 | 60 to 100
C(#Cc1csc(Oc2ccccc2)n1)CCNc1ncnc2sccc12 [compound 83, 4-[4-(2-Phenoxythiazol-4-yl)-3-butynylamino]thieno[2,3-d]pyrimidine] | 60 to 100 | 0 to 60 | 60 to 100
COc1ccccc1C#CCC(C)Nc1ncnc2sccc12 (stereo not drawn) [compound 236] | 60 to 100 | 0 to 60 | 60 to 100
COCc1ccccc1C#CCCNc1ncnc2ccccc12 [compound 133] | 60 to 100 | 60 to 100 | 60 to 100
CC(=O)c1ccc(C#CCCNc2ncnc3ccccc23)cc1 [compound 128] | 60 to 100 | 60 to 100 | 60 to 100
FC(F)c1ccccc1C#CCCNc1ncnc2ccccc12 [compound 100] | 60 to 100 | 60 to 100 | 60 to 100
COCc1ccccc1C#CCCNc1ncnc2ccc(OCC#Cc3ccccc3)cc12 [compound 339] | 0 to 60 | 0 to 60 | 60 to 100
COCc1ccccc1C#CCCNc1ncnc2c(C)cc(C)cc12 [compound 341] | 0 to 60 | 0 to 60 | 60 to 100
Fc1ccc(C(F)(F)F)c(C#CCCNc2ncnc3ccccc23)c1 [compound 168] | 60 to 100 | 60 to 100 | 60 to 100
Clc1ncnc(NCCC#Cc2ccccc2)c1-c1ccccc1 [compound 373] | 0 to 60 | 0 to 60 | 0 to 60
Fc1ccc(F)c(C#CCCNc2ncnc3ccccc23)c1 [compound 163] | 60 to 100 | 60 to 100 | 60 to 100
COCc1ccccc1C#CCCNc1ncnc2ccc(-c3ccccc3F)cc12 [compound 334] | 0 to 60 | 0 to 60 | 60 to 100
COCc1cc(Cl)ccc1C#CCCNc1ncnc2ccccc12 [compound 140] | 60 to 100 | 60 to 100 | 60 to 100
C=CC(CC#Cc1ccc(F)cc1)Nc1ncnc2ccccc12 (stereo not drawn) [compound 297] | 60 to 100 | 0 to 60 | 60 to 100
COCc1ccccc1C#CCCNc1ncnc(Cl)c1C [compound 363] | 60 to 100 | 60 to 100 | 60 to 100
FC(F)(F)c1ccccc1C#CCCNc1ncnc2sccc12 [compound 25] | 60 to 100 | 60 to 100 | 60 to 100
COc1nc(C#CCCNc2ncnc3sccc23)cs1 [compound 67] | 60 to 100 | 60 to 100 | 60 to 100
